# Source: US5726203A, “Qinghaosu derivatives against AIDS” (priority 1993, dated 1998)
# Like-named read-outs stand apart in the source and are kept apart here.
# Columns and labels:
# HIV-1 (MT4) = test: Anti-HIV effect on MT4 cells, virus antigen expression (immunoenzymatic method); format: cell-based
# Excerpt: The virus used was HIV-1 which had been obtained from Professor Montagnier of the Pastear Institute, France. The virus titer used in the experiment was 1×10^4 TCID50 /ml. The cell culture used was CEM cell line which was cultivated in the HIV laboratory of Institute of Virology, Chinese Academy of Preventive Medicine, for cultivation storage of HIV-1.
# The compounds used in the experiment were qinghaosu, dihydroqinghaosu, Artesunate, Artemether, dihydroqinghaosu-methylcarbamate, dihydroqinghaosu-benzenecarbamate, qinghaosu-morpholinyl propylether maleate, dihydroqinghaosu-diethyl amino ethyl ether maleate, deoxyqinghaosu-morpholinyl ethyl ether maleate, qinghaosu-morpholinyl propanol ether maleate, qinghaosu-3,5-dimonpholinyl methyl-4-hydroxy benzyl ether maleate, dihydroqinghaosu-m-chlorobenzoate, qinghaosu-3-pyrrolidinylmethyl-4-hydroxybenzoate oxalate, and qinghaosu-3-morpholinylmethyl-4-hydroxybenzoate oxalate. […] The concentration of the original solution of these compounds were all 1 mg/ml.
# (§1) a. Freshly cultured MT4 cells (5×10^5 /ml) were co-cultivated with the virus fluid (10^3 TCID50 /ml) in a CO2 incubator at 37° C. for 1-1.5 hours. RPMI 1640 complete medium (containing 10% Bovine serum and antibiotics, such as penicillin) was used to wash the unbound virus.
# (§2) Complete medium was added to correct the concentration for use.
# (§3) The experiment was carried out on the plates with 96 wells. 0.1 ml of the above-mentioned infected MT4 cell suspension was added into each well, and then 0.1 ml of various concentrations of the drugs were added. […] Each concentration of the drugs was added into two wells. Both the experiment group and the control group were incubated in a CO2 incubator at 37° C. The drug solution were changed 3 days later, and the following observations were carried out 6 days afterwards.
# b. Observation on the growth situation of cells. Trypan blue dye was used to observe the quantity of live cells in each group.
# (§4) c. Determination of the virus antigen expression. The immunoenzymatic method was used to examine the virus antigen expression. Cells from each group were separately smeared in two wells. They were fixed with cold acetone, HIV-positive serum was dropped into the wells. After incubated in a CO2 incubator at 37° C. for 30 minutes, they were washed with PBS for 3 times. Enzyme-labelled SPA was dropped into the wells. They were incubated in the same condition for 30 minutes, washed with PBS for 3 times, and then put in substrate solution to stain for 2-3 minutes, washed with distilled water, and observed under microscope. Normal cells were colorless, whereas virus-carrying cells appeared browrish red.
# The mark used were as follows:
# The experiment was repeated two to three times.
# The concentration of the original fluid of these compounds were all 1 mg/ml. 0.1 ml was taken and added into 0.1 ml of virus-carrying cell suspension, thus the reaction concentrations were as follows: in the original fluid group, 0.1 mg/0.2 ml, i.e., 0.5 mg/ml; in 1×10^-1group, 0.05 mg/ml; in 1×10^-2 group, 0.005 mg/ml; in 1×10^-3 group, 0.0005 mg/ml, i.e., 0.5 μg/ml; and on the analogy of this.
# U937 HIV-1 [1] = test: Inhibition effect on HIV-1 infected U937 cells (macrophage cell line), HIV antigen test (IE); format: cell-based; conditions: U937 HIV-1; 50 μg/ml
# Experimental: as §1, §2, §3, §4
# (§5) Furthermore, a part of the compounds according to the present invention were used to test their inhibition effect on U937 cell line (macrophage cell line)according to the methods in Experiment 1.
# U937 HIV-1 [2] = test: Inhibition effect on HIV-1 infected U937 cells, activity of reverse transcriptase; format: cell-based; conditions: 50 μg/ml, control 24502
# Excerpt: as §5
# Toxoplasma Gendei = test: Antitoxoplasma effect in vitro in BALB/C mouse macrophages; format: cell-based; conditions: for Infected rate of macrophages / No. of parasites in 100 macrophages / inhibition at 50 µg/mL / inhibition at 100 µg/mL / inhibition at 200 µg/mL: 48 hours; for Infected rate of macrophages: control 75.60; for No. of parasites in 100 macrophages: control 544.00; for inhibition at 50 µg/mL / inhibition at 100 µg/mL / inhibition at 200 µg/mL: Toxoplasma, Macrophage
# Experimental: In vitro incubation was used in the experiment. Macrophages were taken from intraperitoneal of the uninfected BALB/C mice (obtained from Universite Pierre et Marie Curie), centrafuged, washed and counted. Around 1.28×10^5 cells was added into each culture dish, incubated at 37° C. for 3 hours to let the cells to be adherented, then infected by parasites (Toxoplasma Gendei, obtained from Universite Pierre et Marie Curie), in which parasite number was 1×106, so that there were 5 organisms per macrophage. The dishes were incubated at 37° C. for 48 hours, different concentration, (i.e., 50 μg/ml, 100 μg/ml, 200 μg/ml) of the compound according to the present invention was added in. In a control group, no drug was added in. After being cultured at 37° C. for 48 hours, dishes of compound treated groups and control group were colorated. Under microscope, the number of infected and uninfected macrophages in each dishes were counted and to calculated infected rate of macrophage and to count the number of parasites in 100 macrophages.
# Acute toxicity in mice = format: in vivo; conditions: for LD50: mouse, in vivo, po
# Experimental: Animals: Hybrid swiss strain mice (provided by Animal House of Institute of Chinese Mateia Media, China Academy of Traditional Chinese Medicine), 20-22 grams, less than 6 weeks age of both sexes fed in laboretory for 3-5 days observation and a random taking food and drinking.
# Drugs: Dihydroqinghaosu-methylcarbamate and dihydroqinghaosu-benzenecarbamate.
# Above two drugs in powder form were dissolved into peanut oil. The biggest dose were 2000 mg/kg and 2161 mg/kg respectively. The distances between two dose groups were 0.7 and 0.68 respectively, with 5 dose groups each drugs.
# Method: The mice were given single dose of above compound respectively intragastrically, the acute intoxication manifestrations were observed the LD value (LD5, LD50 and LD95) and B value were determined by three days mortality.
# [3] = Subacute toxicologic study; conditions: in vivo, read-out: basic safe dosage
# [4] = F + M, single dose intragastrically
# [5] = F, single dose intragastrically
# [6] = M, single dose intragastrically
structure (smiles),measurement,setting,value
"CNC(=O)OC1OC2OC3(C)CCC4C(C)CCC(C1C)C24OO3 (stereo not shown) [Dihydroqinghaosu-methylcarbamate, Dihydroqinghaosu-Methylcarbamate]","effect on HIV-1 (MT4), virus antigen expression",HIV-1 (MT4); 1 × 10^-1 (50 μg/ml),- (positive cells were not seen in the whole well)
same,"effect on HIV-1 (MT4), virus antigen expression",HIV-1 (MT4); 1 × 10^-2 (5 μg/ml),- (positive cells were not seen in the whole well)
same,"effect on HIV-1 (MT4), virus antigen expression",HIV-1 (MT4); 1 × 10^-3 (0.5 μg/ml),- (positive cells were not seen in the whole well)
same,"effect on HIV-1 (MT4), virus antigen expression",HIV-1 (MT4); 1 × 10^-4 (0.05 μg/ml),- (positive cells were not seen in the whole well)
same,inhibition on HIV,HIV-1 (MT4); according to Table 1,distinct inhibition on HIV
same,Antigen test (IE),U937 HIV-1 [1],- (positive cells were not seen in the whole well)
same,Activity of reverse transcription (CPM),U937 HIV-1 [2],4463 CPM
same,Infected rate of macrophages,Toxoplasma Gendei; 50 μg/ml,0.67
same,No. of parasites in 100 macrophages,Toxoplasma Gendei; 50 μg/ml,2.67
same,Infected rate of macrophages,Toxoplasma Gendei; 100 μg/ml,0
same,No. of parasites in 100 macrophages,Toxoplasma Gendei; 100 μg/ml,0
same,Infected rate of macrophages,Toxoplasma Gendei; 200 μg/ml,0
same,No. of parasites in 100 macrophages,Toxoplasma Gendei; 200 μg/ml,0
same,inhibition at 50 µg/mL,"Toxoplasma Gendei; 50 μg/ml, read-out: Inhibition rate (No. of parasites in 100 macrophages)",99.5%
same,inhibition at 50 µg/mL,"Toxoplasma Gendei; 50 μg/ml, read-out: Inhibition rate (infected rate of macrophages)",99.1%
same,inhibition at 100 µg/mL,"Toxoplasma Gendei; 100 μg/ml, read-out: Inhibition rate (No. of parasites in 100 macrophages)",100%
same,inhibition at 100 µg/mL,"Toxoplasma Gendei; 100 μg/ml, read-out: Inhibition rate (infected rate of macrophages)",100%
same,inhibition at 200 µg/mL,"Toxoplasma Gendei; 200 μg/ml, read-out: Inhibition rate (No. of parasites in 100 macrophages)",100%
same,inhibition at 200 µg/mL,"Toxoplasma Gendei; 200 μg/ml, read-out: Inhibition rate (infected rate of macrophages)",100%
same,inhibition on Toxoplasma Gendei in vitro,Toxoplasma Gendei; in words,obvious inhibition on Toxoplasma Gendei in vitro
same,"Death distribution of mice, exp./death","Acute toxicity in mice; 462 mg/kg, female",5/0
same,"Death distribution of mice, exp./death","Acute toxicity in mice; 462 mg/kg, female + male",10/1
same,"Death distribution of mice, exp./death","Acute toxicity in mice; 462 mg/kg, male",5/1
same,"Death distribution of mice, exp./death","Acute toxicity in mice; 680 mg/kg, female",5/2
same,"Death distribution of mice, exp./death","Acute toxicity in mice; 680 mg/kg, female + male",10/2
same,"Death distribution of mice, exp./death","Acute toxicity in mice; 680 mg/kg, male",5/1
same,"Death distribution of mice, exp./death","Acute toxicity in mice; 1000 mg/kg, female",5/2
same,"Death distribution of mice, exp./death","Acute toxicity in mice; 1000 mg/kg, female + male",10/4
same,"Death distribution of mice, exp./death","Acute toxicity in mice; 1000 mg/kg, male",5/2
same,"Death distribution of mice, exp./death","Acute toxicity in mice; 1470 mg/kg, female",5/2
same,"Death distribution of mice, exp./death","Acute toxicity in mice; 1470 mg/kg, female + male",10/5
same,"Death distribution of mice, exp./death","Acute toxicity in mice; 1470 mg/kg, male",5/3
same,"Death distribution of mice, exp./death","Acute toxicity in mice; 2161 mg/kg, female",5/5
same,"Death distribution of mice, exp./death","Acute toxicity in mice; 2161 mg/kg, female + male",10/10
same,"Death distribution of mice, exp./death","Acute toxicity in mice; 2161 mg/kg, male",5/5
same,LD5,Acute toxicity in mice; [4],435.75 mg/kg
same,LD95,Acute toxicity in mice; [4],2883.02 mg/kg
same,slope (B),Acute toxicity in mice; [4],4.01
same,LD5,Acute toxicity in mice; [5],543.17 mg/kg
same,LD95,Acute toxicity in mice; [5],2711.67 mg/kg
same,slope (B),Acute toxicity in mice; [5],4.711
same,LD5,Acute toxicity in mice; [6],360.92 mg/kg
same,LD95,Acute toxicity in mice; [6],2932.84 mg/kg
same,slope (B),Acute toxicity in mice; [6],3.620
same,LD50,Acute toxicity in mice; [4],1120 mg/kg
same,LD50,Acute toxicity in mice; [5],1210 mg/kg
same,LD50,Acute toxicity in mice; P.O. (per os),1120 mg/kg
same,LD50,Acute toxicity in mice; single dose intragastrically,1030 mg/kg
same,NOAEL,[3],30.2 mg/kg/day
